Results taken from US20050208490A1, “Ligand binding pocket peptide fragment of estrogen-related receptor 3 (err3) and uses thereof” (priority 2002, published 2005).
Where a chain is given by its changes, count along the chain named. Entries after “also recorded” stand apart in the source; their conditions may differ. Read-outs that look alike come from different tables or passages of the source.

Experiments:
[1] = molecular target: T1, ERR1 mutant F328 to alanine (Homo sapiens, UniProt P11474, F232A); conditions: Chen S et al., 2001; cited from earlier work
T1 sequence (P11474 1-423 F232A): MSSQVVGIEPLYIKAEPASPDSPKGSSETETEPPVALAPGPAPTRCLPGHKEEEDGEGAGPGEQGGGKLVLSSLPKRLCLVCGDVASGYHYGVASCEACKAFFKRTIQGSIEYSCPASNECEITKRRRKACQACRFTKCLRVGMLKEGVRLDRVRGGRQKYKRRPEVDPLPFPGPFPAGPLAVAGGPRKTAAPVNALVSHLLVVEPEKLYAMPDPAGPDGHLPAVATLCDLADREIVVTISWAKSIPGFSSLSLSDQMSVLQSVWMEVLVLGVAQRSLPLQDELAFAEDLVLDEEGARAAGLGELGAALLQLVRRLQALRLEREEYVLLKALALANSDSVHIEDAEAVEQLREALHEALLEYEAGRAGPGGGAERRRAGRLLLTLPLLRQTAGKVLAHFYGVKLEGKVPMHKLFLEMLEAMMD

ERRα = molecular target: T2, ERRα (Homo sapiens, UniProt P11474); conditions: micromolar concentrations; Yang and Chen (1999); cited from earlier work
T2 sequence (P11474 1-423): T1 sequence (P11474 1-423 F232A) with A232F

[2] = test system: Gal4-ERR3 mutants (A272F, A272L, F435L, L345I-F435L-F450L); assay: Transient transfection luciferase reporter assay, mutant Gal4-ERR3 fusion proteins in COS-1 cells; format: cell-based, human; conditions: 10^−6M 4-OHT
Protocol: (§1) COS-1 and BHK cells were cultured in DMEM supplemented with 5% FCS, penicillin, streptomycin, and glutamine. Neuro2A cells were cultured in EMEM supplemented with 10% FCS, penicillin, streptomycin, glutamine, and non-essential amino acids. Transient transfection assays were carried out in 24-well plates (0.5×10^5 cells per well for COS-1 and Neuro2A cells, 0.25×10^5 cells per well for BHK cells) using the standard calcium phosphate coprecipitation technique as described in Greiner et al. (Greiner et al., 1996). Cells were transfected with 250 ng of Gal4(5×)-TATA-LUC, Gal4(3×)-TK-LUC, or ERE(2×)-TK-LUC reporter plasmid and 50 ng per well of pCMX-Gal4-ERR3 or pCMX-ERR3 expression plasmid. The empty plasmids pCMX-Gal4 and pCMX served as control. […] Luciferase activity was assayed as described in Greiner et al. (1996). All experiments were repeated at least three times.
(§2) Finally, it has been asked whether ERR3 could activate transcription independently of a putative endogenous ligand. The wt and mutant ERR3 LBDs were fused to the DNA-binding domain of Gal4, and Gal4-ERR3 fusion proteins were tested for their potential to activate transcription in transient transfection assays using synthetic reporters in eukaryotic cell lines. […]

full length ERR3 = full length ERR3 (Homo sapiens, UniProt P62508); assay: Transient transfection with ERE(2×)-TK-LUC reporter, full length ERR3; format: cell-based; conditions: in the presence of 4-OHT
Protocol: as §1

ERR3 [3] = molecular target: T3, ERR3 (Homo sapiens, UniProt P62508); conditions: Coward et al. (2001); cited from earlier work
T3 sequence (P62508 1-458): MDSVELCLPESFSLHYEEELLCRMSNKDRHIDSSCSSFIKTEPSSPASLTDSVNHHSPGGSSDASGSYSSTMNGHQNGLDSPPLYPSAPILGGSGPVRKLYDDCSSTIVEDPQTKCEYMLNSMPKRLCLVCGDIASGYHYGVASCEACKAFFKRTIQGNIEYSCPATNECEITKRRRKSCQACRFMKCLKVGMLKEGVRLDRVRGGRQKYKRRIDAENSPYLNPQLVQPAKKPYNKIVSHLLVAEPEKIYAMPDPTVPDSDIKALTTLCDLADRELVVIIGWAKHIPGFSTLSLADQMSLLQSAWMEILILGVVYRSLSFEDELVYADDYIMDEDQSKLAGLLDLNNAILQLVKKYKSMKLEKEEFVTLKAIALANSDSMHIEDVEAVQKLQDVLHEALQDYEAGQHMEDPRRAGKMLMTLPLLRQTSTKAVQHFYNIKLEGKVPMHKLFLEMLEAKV

[4] = test system: mutant ERR3 LBDs (A272F, A272L, F435L, L345I, L345I-F435L, L345I-F435L-F450L) / GST-SRC-1 RID complex; assay: In vitro protein-protein interaction assay, mutant ERR3 LBDs with SRC-1 RID (native gel); format: biochemical, human; conditions: 10^−4M 4-OHT
Protocol: (§3) The His-tagged wt or mutant ERR3 LBDs, the GST-tagged SRC-1 RID, and GST were expressed in E. coli BL21 (DE3) and partially purified by affinity chromatography using TALON (Clontech) or Glutathione Sepharose 4B (Pharmacia), respectively. […] After purification the proteins were dialyzed in assay buffer (20 mM Tris.HCl pH 8.0, 200 mM NaCl), and concentrated. For the protein-protein interaction assays […] (about 70 pmol) of His-tagged wt or mutant ERR3 LBD were mixed with […] (about 100 pmol) of GST-tagged SRC-1 RID or […] of GST and incubated on ice for 10 mins. […] Protein complexes were resolved on native polyacrylamide gradient gels (8%-25%) using the Phast System (Pharmacia).
(§4) In vitro interaction assays with the RID (amino acids 617-764) of the coactivator SRC-1 has first been performed. Hexahistidine (His)-tagged ERR3, LBD and GST-tagged SRC-1 RID were partially purified by affinity chromatography, the proteins were mixed, and complex formation was monitored on native polyacrylamide gels. […] Complexes were separated on native polyacrylamide gradient gels.
In addition, the ligand-binding pocket of ERR3 has been enlarged by either mutating F435 to leucine or by introducing a triple point mutation (L345I-F435L-F450L) which creates an “ERα-like” ligand-binding pocket.

[5] = molecular target: T4, His-tagged ERR3 LBD / GST-tagged SRC-1 RID complex (Homo sapiens, UniProt P62508); assay: In vitro protein-protein interaction assay, wt ERR3 LBD with SRC-1 RID (native gel); format: biochemical; conditions: 10^−4M ligand
T4 construct: cDNA fragments encoding wt or mutant ERR3 LBDs (residues 229 to 458, human and murine receptor are identical) were generated by PCR; made in house; host or cells: E. coli BL21 (DE3)
T4 sequence (P62508 229-458): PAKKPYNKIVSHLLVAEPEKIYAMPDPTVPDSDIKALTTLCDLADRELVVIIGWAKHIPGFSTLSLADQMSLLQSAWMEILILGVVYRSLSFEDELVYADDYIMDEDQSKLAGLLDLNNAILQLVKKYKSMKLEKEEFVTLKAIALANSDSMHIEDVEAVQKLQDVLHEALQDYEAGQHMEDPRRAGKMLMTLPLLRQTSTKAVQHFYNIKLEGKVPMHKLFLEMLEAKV
Protocol: as §3, §4

ERR3 [6] = molecular target: T3, ERR3; conditions: Coward et al. (2001); cited from earlier work; remark: listed apart in the source
ERR1, ERR2 and ERR3 = conditions: Coward et al., 2001 / reported, cited from earlier work
Gal4-ERR3 = molecular target: T5, Gal4-ERR3 (Homo sapiens, UniProt P62508); assay: Transient transfection luciferase reporter assay, Gal4-ERR3 (wt LBD) in COS-1 cells; format: cell-based
T5 construct: cDNA fragments encoding wt or mutant ERR3 LBDs (residues 229 to 458, human and murine receptor are identical) were generated by PCR; expressed in transfected cells; host or cells: COS-1 cells (also Neuro2A and BHK)
T5 sequence (P62508 229-458): T4 sequence (P62508 229-458)
Protocol: as §1, §2

Molecule | activation of ERR1 F328A mutant [1] | effect on ERRα basal activity (ERRα) | transcriptional activity of Gal4-ERR3 mutants ([2]; Gal4-ERR3(A272F) or Gal4-ERR3(A272L)) | transcriptional activity of Gal4-ERR3 mutants ([2]; Gal4-ERR3(F435L) and Gal4-ERR3(L345I-F435L-F450L)) | active repression of transcription of the TK promoter by full length ERR3 (full length ERR3) | affinity of binding to ERR3 (ERR3 [3]) | disruption of the mutant ERR3 LBD/GST-SRC-1 RID complex ([4]; mutant F435L) | disruption of the mutant ERR3 LBD/GST-SRC-1 RID complex ([4]; mutants A272F or A272L) | antagonist action on mutant ERR3 LBD in vitro ([4]; mutants F435L, L345I-F435L, L345I-F435L-F450L) | conformational change of the ERR3 LBD (migration on native gels) [5] | disruption of the ERR3 LBD/GST-SRC-1 RID complex ([5]; native polyacrylamide gradient gel) | effect on ERR3 transcriptional activity (ERR3 [6]) | binding to ERR isotypes (ERR1, ERR2 and ERR3; listed as 40HT) | binding to ERR isotypes (ERR1, ERR2 and ERR3) | repression of Gal4-ERR3 constitutive activity below basal levels of the TK promoter (Gal4-ERR3; Gal4(3×)-TK-LUC reporter) | transcriptional activity of Gal4-ERR3 (Gal4-ERR3; Gal4(5×)-TATA-LUC reporter, 10^−6M 4-OHT)
CC1(C)C(C(Cl)Cl)C2(Cl)C(Cl)C(Cl)C1(Cl)C2(Cl)Cl (centres unmarked) [toxaphene] | can be activated by toxaphene | decrease ERRα basal activity | – | – | – | – | – | – | – | – | – | – | – | – | – | –
4-hydroxytamoxifen [4-OHT] | – | – | but not of Gal4-ERR3(A272F) or Gal4-ERR3(A272L) | antagonizes the transcriptional activity | does not actively repress transcription of the TK promoter | submicromolar | still disrupted | no effect is observed | still acts as an antagonist | significant conformational change | specifically disrupted | repressed transactivation; also recorded: selectively block the transcriptional activity of ERR3 | binds both ERR2 and ERR3 | does not bind ERR1; also recorded: binds to ERR2 and ERR3 but not to ERR1 | neither 4-OHT nor DES repress the constitutive activity of Gal4-ERR3 below basal levels | blocked efficiently
ClC1=C(Cl)C2(Cl)C3C(Cl)C(Cl)CC3C1(Cl)C2(Cl)Cl (centres unmarked) [chlordane] | – | decrease ERRα basal activity | – | – | – | – | – | – | – | – | – | – | – | – | – | –
